According to a melting point compilation (Tetko et al.):

Row | Structure (SMILES) | melting point
1 | NC(=O)C(Br)(Br)C(N)=O | 205 °C
2 | Sc1nc2cc(Cl)c(Cl)cc2[nH]1 | 300 °C
3 | FC(F)(F)c1cc(-c2ccc3c(c2)OCO3)n[nH]1 | 177 to 179 °C
4 | C=C1C(=O)C23C(OC)CC4C5(C)CCCC4(COC5=O)C2C(OC(C)=O)CC1C3O (stereo unspecified) | 126 to 127 °C
5 | O=C(O)CCC12CC3CC(CC(C3)C1)C2 | 147 to 148 °C
6 | CC12CCC(C(CCC3C(=O)C4(C)CCC3C4(C)C)C1=O)C2(C)C (stereo unspecified) | 210 °C
7 | O=C(OCCOc1ccc(Cl)cc1Cl)c1ccccc1 | 66 °C
8 | COc1cccc(C)c1 | -47 °C
9 | CCn1c2c(c3cc(OC)ccc31)CCc1cc(OC)ccc1-2 | 145 to 147 °C
10 | Cc1ccc(Br)nc1 | 43 °C
11 | COc1ccc(NC(=O)C=CC(=O)O)cc1 | 190 to 193 °C
12 | COc1ccc(C(=O)C=CC(=O)O)cc1 | 139 °C
13 | Cc1c(Cl)cc(-c2ccc(=O)[nH]n2)cc1Cl | 252 °C
14 | COC(=O)c1cc(C)n(CN(Cn2nc(C(=O)OC)cc2C)c2ccccc2)n1 | 124 to 126 °C
15 | Nc1n[nH]c(-c2ccccc2)c1Br | 118 to 120 °C
16 | Cc1cnc(Br)c(N)c1 | 105 °C
17 | O=C(O)CCc1ccco1 | 58 °C
18 | CCC(C)c1cccc(C(C)CC)c1O (stereo unspecified) | -42 °C
19 | O=C(C=Cc1ccc(-c2ccccc2[N+](=O)[O-])o1)c1ccco1 | 168 to 169 °C
20 | C=C1CCCCC1 | -107 °C
21 | CCOC(=O)Oc1c(OC)cc(C(=O)O)cc1OC | 180 to 185 °C
22 | OCc1c2ccccc2cc2ccccc12 | 163 °C

Row | Structure (SMILES) | melting point
23 | O=C(Nc1ccccc1SSc1ccccc1NC(=O)c1ccccc1)c1ccccc1 | 142 °C
24 | Nc1ccc(C(C/C(=N/O)c2ccccc2)NO)cc1 (stereo unspecified) | 178 to 179 °C
25 | O=[N+]([O-])c1cc(Cl)c(Cl)cc1Nc1ccccn1 | 156 °C
26 | CC(CCC(O)(c1ccccc1)c1ccccc1)C1CCC2C3C(O)CC4CC(O)CCC4(C)C3CC(O)C12C (stereo unspecified) | 162 to 170 °C
27 | Cc1ccc(Cl)cc1NC(N)=S | 160 to 161 °C
28 | N#C/C(=N/Nc1ccc(Cl)cc1)c1nc(-c2ccccc2)cs1 | 168 °C
29 | CCCCCOC=O | -73.5 °C
30 | CCC1CCC(=O)O1 (stereo unspecified) | -18 °C
31 | O=C(O)C1(C(F)(F)F)CCCCC1 | 69.5 °C
32 | CCCCOc1ccc(-c2nnc3n2NC(c2ccc(O)c(OC)c2)S3)cc1 (stereo unspecified) | 144 °C
33 | Cc1n[nH]c(S)n1 | 275 to 277 °C
34 | CCOC(=O)c1c(SC)nn2c(=O)n(Nc3ccccc3)cnc12 | 118 to 122 °C
35 | O=C(C(C(F)(F)F)C(F)(F)F)N(Cc1ccccc1)Cc1ccccc1 | 76 °C
36 | CCOC(=O)NC(=S)Nc1ncccc1C | 124 to 126 °C
37 | Oc1cc(-c2ccccc2)c2cc(Br)cc(Br)c2n1 | 210 to 211 °C
38 | CCOC(=O)c1nn(-c2cc(-c3ccc(OC)cc3)n[nH]2)c(=N)c(-c2nc3ccccc3s2)c1C | 175 °C
39 | FC(F)=C(F)F | -142 °C
40 | Cc1ccc(Oc2ccc(Br)cc2)nn1 | 120 °C
41 | O=S(=O)(Cl)c1cccc2cccnc12 | 129 °C
42 | FC(F)(F)C(F)(F)C(F)(F)C(F)(F)N(C(F)(F)C(F)(F)C(F)(F)C(F)(F)F)C(F)(F)C(F)(F)C(F)(F)C(F)(F)F | -50 °C
43 | Cc1ccc(S(=O)(=O)O)c(C)c1 | 57 °C
44 | CCOC(C/N=C/c1cccc(/C=N/CC(OCC)OCC)c1)OCC | 61 °C

Row | Structure (SMILES) | melting point
45 | O=[N+]([O-])c1cccc(OCCBr)c1 | 39 °C
46 | CC(C)(C)C(Br)Br | 14 °C
47 | COc1ccc(F)c(F)c1C#N | 81 °C
48 | O=Cc1ccc2ccc3cccc4ccc1c2c34 | 127 °C
49 | O=Cc1ccc(Br)cc1 | 67 °C
50 | O=C(O)c1cccc(COc2ccccc2)c1 | 118 to 119 °C
51 | COc1ccc(Cn2cncn2)cc1 | 41.5 °C
52 | O=C(O)c1cccc2cccc(Br)c12 | 169 to 171 °C
53 | C1CCC2CCCC2C1 (stereo unspecified) | -53 °C
54 | O=C(O)Cc1ccccc1CC(=O)O | 151 °C
55 | O=C(C=Nc1ccccc1)c1cc(C(=O)C=Nc2ccccc2)cc(C(=O)C=Nc2ccccc2)c1 | 340 °C
56 | N#Cc1c(F)cccc1Cl | 58 °C
57 | CC(C)(CO)NCC(O)CS(=O)(=O)O (stereo unspecified) | 215 to 225 °C
58 | CCCCCCC1CCCCC1 | -43 °C
59 | CCc1cc(C(N)=S)ccn1 | 164 °C
60 | COc1cc(OC)cc(C(C)=O)c1 | 40 °C
61 | ClCc1cc2c(cc1Cl)OCO2 | 64 °C
62 | CCOC(=O)C(CCc1ccccc1)NC(C)C(=O)N1Cc2ccccc2CC1C(=O)O (stereo unspecified) | 125 °C
63 | CC(=O)c1cc2c(cc1Br)OCCCO2 | 56 to 58 °C
64 | OC(c1ccccc1)c1cccc(C(F)(F)F)c1 (stereo unspecified) | 63 °C
65 | CCC(Br)C(=O)O (stereo unspecified) | -4 °C
66 | C=CCCCCCCCCCCCCCCCCC | 23 °C
